Test results published in patent US9051325B2, “Bicyclic [5,6] imidazo pyrimodone compounds for use in the treatment of diseases or conditions mediated by Lp-PLA2” (GlaxoSmithKline Intellectual Property Development Limited, priority 2013, dated 2015).
Like-named read-outs stand apart in the source and are kept apart here.

Columns and labels:
[1] = target: T1, recombinant human Lp-PLA2 (Homo sapiens, UniProt Q13093); assay: Recombinant human Lp-PLA2 assay (rhLp-PLA2, PED6 assay); assay type: biochemical
T1 sequence (Q13093 22-441): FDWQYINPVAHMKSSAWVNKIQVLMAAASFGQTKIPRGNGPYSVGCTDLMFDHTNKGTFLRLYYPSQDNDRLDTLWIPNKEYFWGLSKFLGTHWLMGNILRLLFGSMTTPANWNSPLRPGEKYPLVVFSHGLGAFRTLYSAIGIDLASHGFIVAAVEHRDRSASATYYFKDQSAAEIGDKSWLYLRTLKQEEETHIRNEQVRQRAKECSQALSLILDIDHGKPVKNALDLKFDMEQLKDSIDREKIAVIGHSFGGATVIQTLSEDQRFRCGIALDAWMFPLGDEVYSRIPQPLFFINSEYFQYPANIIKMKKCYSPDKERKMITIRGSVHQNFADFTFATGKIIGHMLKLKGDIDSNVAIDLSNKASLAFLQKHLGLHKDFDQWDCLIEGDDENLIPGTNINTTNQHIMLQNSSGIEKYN
In short: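 Compounds were preincubated 30 min with 4 nM […] rhLp-PLA2 in 50 mM HEPES pH 7.4, 150 mM NaCl, 1 mM CHAPS, then PED6 substrate […] was added for 20 min at room temperature in the dark. Fluorescence was read at ex 480/em 540, and pIC50 was fitted from 1:3 serial dilutions.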

[2] = target: T2, Lp-PLA2 in human plasma (Homo sapiens, UniProt Q13093); assay: Lp-PLA2 human plasma assay (Thio-PAF assay); assay type: biochemical; conditions: pooled human plasma; lower bounds; read-out: pIC50 values in the thio-PAF assay (converted)
T2 construct: from tissue; host or cells: pooled human plasma
T2 sequence (Q13093 22-441): T1 sequence (Q13093 22-441)
In short: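 Pooled human plasma preincubated 30 min with compounds, then given 2-thio-PAF substrate with CPM and NEM in 50 mM HEPES pH 7.4, 150 mM NaCl, 1 mM CHAPS. Reaction quenched after 2 min with TFA and read by fluorescence (ex 380/em 485) after 40 min at room temperature; pIC50 from curve fit.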

[3] = lower bounds, read-out: pIC50 values in the PED6 assay (converted)
[4] = read-out: rhLp-PLA2 (PED6 assay) (pIC50) (converted)

IC50 [1, 3] | IC50 [1, 4] | IC50 [2] | Structure (SMILES)
≤ 1 nM | 0.0398 nM | ≤ 100 nM | CN1c2cc(OCc3ccc(Oc4ccnc(C(F)(F)F)c4)c(F)c3)nc(=O)n2CC1(C)C [Example E59, 7-((3-fluoro-4-((2-(trifluoromethyl)pyridin-4-yl)oxy)benzyl)oxy)-1,2,2-trimethyl-2,3-dihydroimidazo[1,2-c]pyrimidin-5(1H)-one]
≤ 1 nM | 0.0398 nM | ≤ 100 nM | CN1c2cc(OCc3cc(F)c(Oc4ccc(C(F)(F)F)nc4)c(F)c3)nc(=O)n2CC1(C)C [Example E60, 7-((3,5-difluoro-4-((6-(trifluoromethyl)pyridin-3-yl)oxy)benzyl)oxy)-1,2,2-trimethyl-2,3-dihydroimidazo[1,2-c]pyrimidin-5(1H)-one]
≤ 1 nM | 0.126 nM | ≤ 100 nM | CN1c2cc(OCc3cc(F)c(Oc4cncc(C(F)(F)F)c4)c(F)c3)nc(=O)n2CC1(C)C [Example E61, 7-((3,5-difluoro-4-((5-(trifluoromethyl)pyridin-3-yl)oxy)benzyl)oxy)-1,2,2-trimethyl-2,3-dihydroimidazo[1,2-c]pyrimidin-5(1H)-one]
≤ 1 nM | 0.1 nM | ≤ 100 nM | CN1c2cc(OCc3ccc(Oc4cncc(Cl)c4)c(F)c3)nc(=O)n2CC1(C)C [Example E63, 7-((4-((5-chloropyridin-3-yl)oxy)-3-fluorobenzyl)oxy)-1,2,2-trimethyl-2,3-dihydroimidazo[1,2-c]pyrimidin-5(1H)-one]
≤ 1 nM | 0.0794 nM | ≤ 100 nM | CN1c2cc(OCc3cc(F)c(Oc4ccc(F)nc4)c(F)c3)nc(=O)n2CC1(C)C [Example E64, 7-((3,5-difluoro-4-((6-fluoropyridin-3-yl)oxy)benzyl)oxy)-1,2,2-trimethyl-2,3-dihydroimidazo[1,2-c]pyrimidin-5(1H)-one]
≤ 1 nM | – | ≤ 100 nM | CN1c2cc(OCc3ccc(Oc4ccnc(Cl)c4)c(F)c3)nc(=O)n2CC1(C)C [Example E65, 7-((4-((2-chloropyridin-4-yl)oxy)-3-fluorobenzyl)oxy)-1,2,2-trimethyl-2,3-dihydroimidazo[1,2-c]pyrimidin-5(1H)-one]
≤ 10 nM | – | ≤ 100 nM | CCN1c2cc(OCc3cccc(F)c3F)nc(=O)n2CC1(C)C [Example E66, 7-((2,3-difluorobenzyl)oxy)-1-ethyl-2,2-dimethyl-2,3-dihydroimidazo[1,2-c]pyrimidin-5(1H)-one]
≤ 10 nM | – | ≤ 100 nM | [2H]C([2H])(Oc1cc2n(c(=O)n1)CC(C)(C)N2C)c1cccc(F)c1F [Example E67, 7-(dideutero(2,3-difluorobenzyl)oxy)-1,2,2-trimethyl-2,3-dihydroimidazo[1,2-c]pyrimidin-5(1H)-one]
≤ 1 nM | – | ≤ 100 nM | CC1(C)Cn2c(cc(OCc3ccc(Oc4ccnc(F)c4)c(F)c3)nc2=O)N1 [Example E68, 7-((3-fluoro-4-((2-fluoropyridin-4-yl)oxy)benzyl)oxy)-2,2-dimethyl-2,3-dihydroimidazo[1,2-c]pyrimidin-5(1H)-one]
≤ 1 nM | – | ≤ 100 nM | CC1(C)Cn2c(cc(OCc3ccc(Oc4ccc(F)nc4)c(F)c3)nc2=O)N1 [Example E69, 7-((3-fluoro-4-((6-fluoropyridin-3-yl)oxy)benzyl)oxy)-2,2-dimethyl-2,3-dihydroimidazo[1,2-c]pyrimidin-5(1H)-one]
≤ 1 nM | – | ≤ 100 nM | CC1Cn2c(cc(OCc3ccc(Oc4cccc(C(F)(F)F)c4)c(C#N)c3)nc2=O)N1C (stereo not drawn) [Example E71, 5-(((1,2-dimethyl-5-oxo-1,2,3,5-tetrahydroimidazo[1,2-c]pyrimidin-7-yl)oxy)methyl)-2-(3-(trifluoromethyl)phenoxy)benzonitrile]
≤ 1 nM | – | ≤ 100 nM | C[C@H]1Cn2c(cc(OCc3cc(F)c(Oc4ccc(C(F)(F)F)nc4)c(F)c3)nc2=O)N1C [Example E73, (S)-7-((3,5-difluoro-4-((6-(trifluoromethyl)pyridin-3-yl)oxy)benzyl)oxy)-1,2-dimethyl-1-2,3-dihydroimidazo[1,2-c]pyrimidin-5(1H)-one]
≤ 10 nM | – | ≤ 100 nM | C[C@H]1Cn2c(cc(OCc3ccc(F)c(C#N)c3)nc2=O)N1 [Example E74, (S)-2-fluoro-5-(((2-methyl-5-oxo-1,2,3,5-tetrahydroimidazo[1,2-c]pyrimidin-7-yl)oxy)methyl)benzonitrile]
≤ 10 nM | – | ≤ 100 nM | C[C@H]1Cn2c(cc(OCc3ccc(F)c(C#N)c3)nc2=O)N1C [Example E75, (S)-5-(((1,2-dimethyl-5-oxo-1,2,3,5-tetrahydroimidazo[1,2-c]pyrimidin-7-yl)oxy)methyl)-2-fluorobenzonitrile]
≤ 10 nM | – | ≤ 100 nM | CN1c2cc(OCc3ccc(F)cc3F)nc(=O)n2CC1(C)C [Example E77, 7-((2,4-difluorobenzyl)oxy)-1,2,2-trimethyl-2,3-dihydroimidazo[1,2-c]pyrimidin-5(1H)-one]
≤ 1 nM | – | ≤ 100 nM | C[C@H]1Cn2c(cc(OCc3ccc(Oc4ccnc(C(F)(F)F)c4)c(F)c3)nc2=O)N1 [Example E78, (S)-7-((3-fluoro-4-((2-(trifluoromethyl)pyridin-4-yl)oxy)benzyl)oxy)-2-methyl-2,3-dihydroimidazo[1,2-c]pyrimidin-5(1H)-one]
≤ 1 nM | – | ≤ 100 nM | CC1(C)Cn2c(cc(OCc3ccc(Oc4ccnc(Cl)c4)c(F)c3)nc2=O)N1 [Example E82, 7-((4-((2-chloropyridin-4-yl)oxy)-3-fluorobenzyl)oxy)-2,2-dimethyl-2,3-dihydroimidazo[1,2-c]pyrimidin-5(1H)-one]
≤ 1 nM | – | ≤ 100 nM | C[C@H]1Cn2c(cc(OCc3ccc(Oc4ccc(F)c(F)c4)c(C#N)c3)nc2=O)N1C [Example E88, (S)-2-(3,4-difluorophenoxy)-5-(((1,2-dimethyl-5-oxo-1,2,3,5-tetrahydroimidazo[1,2-c]pyrimidin-7-yl)oxy)methyl)benzonitrile]
≤ 1 nM | – | ≤ 100 nM | C[C@H]1Cn2c(cc(OCc3ccc(Oc4ccc(Cl)c(C#N)c4)c(F)c3)nc2=O)N1C [Example E89, (S)-2-chloro-5-(4-(((1,2-dimethyl-5-oxo-1,2,3,5-tetrahydroimidazo[1,2-c]pyrimidin-7-yl)oxy)methyl)-2-fluorophenoxy)benzonitrile]
≤ 1 nM | – | ≤ 100 nM | CC1(C)Cn2c(cc(OCc3ccc(Oc4cncc(Cl)c4)c(F)c3)nc2=O)N1 [Example E90, 7-((4-((5-chloropyridin-3-yl)oxy)-3-fluorobenzyl)oxy)-2,2-dimethyl-2,3-dihydroimidazo[1,2-c]pyrimidin-5(1H)-one]
≤ 1 nM | – | ≤ 100 nM | CC1(C)Cn2c(cc(OCc3cc(F)c(Oc4cncc(C(F)(F)F)c4)c(F)c3)nc2=O)N1 [Example E91, 7-((3,5-difluoro-4-((5-(trifluoromethyl)pyridin-3-yl)oxy)benzyl)oxy)-2,2-dimethyl-2,3-dihydroimidazo[1,2-c]pyrimidin-5(1H)-one]
≤ 10 nM | – | ≤ 100 nM | [2H]C([2H])(Oc1cc2n(c(=O)n1)CC(C)(C)N2C)c1cc(F)cc(F)c1 [Example E93, 7-(dideutero(3,5-difluorobenzyl)oxy)-1,2,2-trimethyl-2,3-dihydroimidazo[1,2-c]pyrimidin-5(1H)-one]
≤ 1 nM | 0.0794 nM | ≤ 100 nM | CN1c2cc(OCc3cc(F)c(Oc4cnc(C(F)(F)F)nc4)c(F)c3)nc(=O)n2CC1(C)C [Example E95, 7-((3,5-difluoro-4-((2-(trifluoromethyl)pyrimidin-5-yl)oxy)benzyl)oxy)-1,2,2-trimet-hyl-2,3-dihydroimidazo[1,2-c]pyrimidin-5(1H)-one]
≤ 1 nM | 0.316 nM | ≤ 100 nM | CC(C)N1c2cc(OCc3cc(F)cc(F)c3)nc(=O)n2CC1(C)C [Example E96, 7-((3,5-difluorobenzyl)oxy)-1-isopropyl-2,2-dimethyl-2,3-dihydroimidazo[1,2-c]pyrimidin-5(1H)-one]
≤ 1 nM | 0.631 nM | ≤ 100 nM | [2H]C([2H])(Oc1cc2n(c(=O)n1)CC(C)(C)N2C(C)C)c1cc(F)cc(F)c1 [Example E97, 7-(dideutero(3,5-difluorobenzyl)oxy)-1-isopropyl-2,2-dimethyl-2,3-dihydroimidazo[1,2-c]pyrimidin-5(1H)-one]
≤ 1 nM | – | ≤ 100 nM | CN1c2cc(OCc3ccc(Oc4ccc(F)nc4)c(F)c3)nc(=O)n2CC1(C)C [Example E98, 7-((3-fluoro-4-((6-fluoropyridin-3-yl)oxy)benzyl)oxy)-1,2,2-trimethyl-2,3-dihydroimidazo[1,2-c]pyrimidin-5(1H)-one]
